Experimental findings from patent publication US9133115B2 (ACHILLION PHARMACEUTICALS, INC., priority 2008, dated 2015) are described below.

In general, EC50 refers to the concentration giving half of the maximal effect.

Structures are written as SMILES.

For this experiment, the system named is HCV replicon. In words: HCV replicon replication assay (NPT ELISA) in Huh-7 replicon-containing cells. It counts as cell-based. The settings on record: Hepatitis C virus, 72 h; HCV replicon in Huh-7 cells, three days incubation; read-out: EC50. Put shortly:
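Replication was scored by capture ELISA of neomycin phosphotransferase, whose level tracks replicon replication, after graded compound treatment. The cells were Huh-7 harbouring an HCV-IRES/neo/EMCV-IRES/NS3–NS5B/3′-NTR replicon, plated at 6000-7500 cells/well and dosed 24 h later at 60-70% confluence; interferon alpha was the positive control.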
With `C=C[C@@H]1C[C@]1(NC(=O)[C@@H]1C[C@@H](OC(=O)Nc2cccc(Oc3ccccc3)c2)CN1C(=O)[C@@H](CC(=O)N1CCCCC1)C(C)(C)C)C(=O)NS(=O)(=O)C1CC1` [Compound 95, (3R,5S)-1-((S)-2-tert-butyl-4-oxo-4-(piperidin-1-yl)butanoyl)-5-((1R,2S)-1-(cyclopropylsulfonyl-carbamoyl)-2-vinylcyclopropyl-carbamoyl)pyrrolidin-3-yl 3-phenoxyphenyl-carbamate], the EC50 lay within 1000 to 10000 nM. Next, `C=C[C@@H]1C[C@]1(NC(=O)[C@@H]1C[C@@H](Oc2cc(-c3csc(NC(C)C)n3)nc3cc(OC)ccc23)CN1C(=O)[C@@H](CC(=O)N1CCCCC1)C(C)(C)C)C(=O)NS(=O)(=O)C1CC1` [Compound 96, (2S,4R)-1-((S)-2-tert-butyl-4-oxo-4-(piperidin-1-yl)butanoyl)-N-((1R,2S)-1-(cyclopropylsulfonyl-carbamoyl)-2-vinylcyclopropyl)-4-(2-(2-(isopropyl-amino)thiazol-4-yl)-7-methoxyquinolin-4-yloxy)pyrrolidine-2-carboxamide]: below 1000 nM; `COc1ccc2c(O[C@@H]3C[C@@H](C(=O)NC4(C(=O)NS(=O)(=O)C5CC5)CCC4)N(C(=O)[C@@H](CC(=O)N4CCCCC4)C(C)(C)C)C3)cc(-c3ccccc3)nc2c1` [Compound 97, (2S,4R)-1-((S)-2-tert-butyl-4-oxo-4-(piperidin-1-yl)butanoyl)-N-(1-(cyclopropylsulfonyl-carbamoyl)cyclo-butyl)-4-(7-methoxy-2-phenylquinolin-4-yloxy)pyrrolidine-2-carboxamide]: 1000 to 10000 nM. Next, `COc1ccc2c(O[C@@H]3C[C@@H](C(=O)NC4(C(=O)NS(=O)(=O)C5CC5)CCCC4)N(C(=O)[C@@H](CC(=O)N4CCCCC4)C(C)(C)C)C3)cc(-c3ccccc3)nc2c1` [Compound 98, (2S,4R)-1-((S)-2-tert-butyl-4-oxo-4-(piperidin-1-yl)butanoyl)-N-(1-(cyclopropylsulfonyl-carbamoyl)cyclo-pentyl)-4-(7-methoxy-2-phenylquinolin-4-yloxy)pyrrolidine-2-carboxamide]: 1000 to 10000 nM. Then `C=C[C@@H]1C[C@]1(NC(=O)[C@@H]1C[C@@H](OC(=O)n2c3ccccc3c3ccccc32)CN1C(=O)[C@@H](CC(=O)N1CCCCC1)C(C)(C)C)C(=O)NS(=O)(=O)C1CC1` [Compound 99, (3R,5S)-1-((S)-2-tert-butyl-4-oxo-4-(piperidin-1-yl)butanoyl)-5-((1R,2S)-1-(cyclo-propylsulfonyl-carbamoyl)-2-vinyl-cyclopropyl-carbamoyl)pyrrolidin-3-yl 9H-carbazole-9-carboxylate], with below 1000 nM; and `C=C[C@@H]1C[C@]1(NC(=O)[C@@H]1C[C@@H](Oc2cc(-c3csc(NC(C)C)n3)nc3cc(OC)ccc23)CN1C(=O)[C@@H](CC(=O)N1CCOCC1)C(C)(C)C)C(=O)NS(=O)(=O)C1CC1` [Compound 100, (2S,4R)-1-((S)-2-tert-butyl-4-morpholino-4-oxobutanoyl)-N-((1R,2S)-1-(cyclopropylsulfonyl-carbamoyl)-2-vinylcyclopropyl)-4-(2-(2-(isopropyl-amino)thiazol-4-yl)-7-methoxyquinolin-4-yloxy)pyrrolidine-2-carboxamide], with below 1000 nM. As to `C=C[C@@H]1C[C@]1(NC(=O)[C@@H]1C[C@@H](Oc2nccc3cc(OC)ccc23)CN1C(=O)[C@@H](CC(=O)N1CCCCC1)C(C)(C)C)C(=O)NS(=O)(=O)C1CC1` [Compound 101, (2S,4R)-1-((S)-2-tert-butyl-4-oxo-4-(piperidin-1-yl)butanoyl)-N-((1R,2S)-1-(cyclo-propylsulfonyl-carbamoyl)-2-vinylcyclopropyl)-4-(6-methoxyisoquinolin-1-yloxy)pyrrolidine-2-carboxamide], the EC50 was below 1000 nM.

`C=C[C@@H]1C[C@]1(NC(=O)[C@@H]1C[C@@H](Oc2cc(-c3ccccc3)nc3cc(OC)ccc23)CN1C(=O)[C@@H](CC(=O)N1CCCCC1)CC(C)(C)C)C(=O)NS(=O)(=O)C1CC1` [Compound 104, (2S,4R)-N-((1R,2S)-1-(cyclopropyl-sulfonylcarbamoyl)-2-vinylcyclopropyl)-1-((R)-4,4-dimethyl-2-(2-oxo-2-(piperidin-1-yl)ethyl)pentanoyl)-4-(7-methoxy-2-phenylquinolin-4-yloxy)pyrrolidine-2-carboxamide]: the half-maximal effective concentration (EC50) was below 1000 nM. Then `C=C[C@@H]1C[C@]1(NC(=O)[C@@H]1C[C@@H](Oc2cc(-c3ccccc3)nc3cc(OC)ccc23)CN1C(=O)[C@@H](CC(=O)N1CCCCC1)C(C)(C)C)C(=O)NS(=O)(=O)C1CCCC1` [Compound 105, (2S,4R)-1-((S)-2-tert-butyl-4-oxo-4-(piperidin-1-yl)butanoyl)-N-((1R,2S)-1-(cyclopentyl-sulfonylcarbamoyl)-2-vinylcyclopropyl)-4-(7-methoxy-2-phenylquinolin-4-yloxy)pyrrolidine-2-carboxamide], with below 1000 nM; and `C=C[C@@H]1C[C@]1(NC(=O)[C@@H]1C[C@@H](Oc2cc(-c3ccccc3)nc3cc(OC)ccc23)CN1C(=O)[C@@H](CC(=O)N1CCCCC1)C(C)(C)C)C(=O)NS(=O)(=O)C1(C)CC1` [Compound 106, (2S,4R)-1-((S)-2-tert-butyl-4-oxo-4-(piperidin-1-yl)butanoyl)-4-(7-methoxy-2-phenylquinolin-4-yloxy)-N-((1R,2S)-1-(1-methylcyclopropyl-sulfonylcarbamoyl)-2-vinylcyclo-propyl)pyrrolidine-2-carboxamide], with below 1000 nM; and `C=C[C@@H]1C[C@]1(NC(=O)[C@@H]1C[C@@H](Oc2cc(-c3ccccc3)nc3cc(OC)ccc23)CN1C(=O)[C@@H](CC(=O)N1CCCCC1)C(C)(C)C)C(=O)N(C1CC1)S(N)(=O)=O` [Compound 107, (2S,4R)-1-((S)-2-tert-butyl-4-oxo-4-(piperidin-1-yl)butanoyl)-N-((1R,2S)-1-(N-cyclopropyl-sulfamoyl-carbamoyl)-2-vinylcyclopropyl)-4-(7-methoxy-2-phenylquinolin-4-yloxy)pyrrolidine-2-carboxamide], with below 1000 nM.

On to `C=C[C@@H]1C[C@]1(NC(=O)[C@@H]1C[C@@H](Oc2cc(-c3ccccc3)nc3cc(OC)ccc23)CN1C(=O)[C@@H](CC(=O)N1CCCC(F)(F)C1)C(C)(C)C)C(=O)NS(=O)(=O)C1CC1` [Compound 108, (2S,4R)-1-((S)-2-tert-butyl-4-(3,3-difluoropiperidin-1-yl)-4-oxobutanoyl)-N-((1R,2S)-1-(cyclo-propylsulfonyl-carbamoyl)-2-vinylcyclopropyl)-4-(7-methoxy-2-phenylquinolin-4-yloxy)pyrrolidine-2-carboxamide], for which the EC50 was below 1000 nM.

`CC[C@H](NC(=O)[C@@H]1C[C@@H](Oc2cc(-c3ccccc3)nc3cc(OC)ccc23)CN1C(=O)[C@@H](CC(=O)N1CCCCC1)C(C)(C)C)C(=O)NS(=O)(=O)C1CC1` [Compound 109, (2S,4R)-1-((S)-2-tert-butyl-4-oxo-4-(piperidin-1-yl)butanoyl)-N-((S)-1-(cyclopropane-sulfonamido)-1-oxobutan-2-yl)-4-(7-methoxy-2-phenylquinolin-4-yloxy)pyrrolidine-2-carboxamide]: the EC50 was in the range of 1000 to 10000 nM. `COc1ccc2c(O[C@@H]3C[C@@H](C(=O)N[C@H](C(=O)NS(=O)(=O)C4CC4)C(C)C)N(C(=O)[C@@H](CC(=O)N4CCCCC4)C(C)(C)C)C3)cc(-c3ccccc3)nc2c1` [Compound 110, (2S,4R)-1-((S)-2-tert-butyl-4-oxo-4-(piperidin-1-yl)butanoyl)-N-((S)-1-(cyclopropane-sulfonamido)-3-methyl-1-oxobutan-2-yl)-4-(7-methoxy-2-phenylquinolin-4-yloxy)pyrrolidine-2-carboxamide]: the half-maximal effective concentration (EC50) lay within 1000 to 10000 nM. Then `COc1ccc2c(O[C@@H]3C[C@@H](C(=O)NC(C)(C)C(=O)NS(=O)(=O)C4CC4)N(C(=O)[C@@H](CC(=O)N4CCCCC4)C(C)(C)C)C3)cc(-c3ccccc3)nc2c1` [Compound 111, (2S,4R)-1-((S)-2-tert-butyl-4-oxo-4-(piperidin-1-yl)butanoyl)-N-(1-(cyclopropane-sulfonamido)-2-methyl-1-oxopropan-2-yl)-4-(7-methoxy-2-phenylquinolin-4-yloxy)pyrrolidine-2-carboxamide], with 1000 to 10000 nM; and `COc1ccc2c(O[C@@H]3C[C@@H](C(=O)N[C@H](C(=O)NS(=O)(=O)C4CC4)c4ccccc4)N(C(=O)[C@@H](CC(=O)N4CCCCC4)C(C)(C)C)C3)cc(-c3ccccc3)nc2c1` [Compound 112, (2S,4R)-1-((S)-2-tert-butyl-4-oxo-4-(piperidin-1-yl)butanoyl)-N-((S)-2-(cyclopropane-sulfonamido)-2-oxo-1-phenylethyl)-4-(7-methoxy-2-phenylquinolin-4-yloxy)pyrrolidine-2-carboxamide], with 1000 to 10000 nM; and `CCC[C@H](NC(=O)[C@@H]1C[C@@H](Oc2cc(-c3ccccc3)nc3cc(OC)ccc23)CN1C(=O)[C@@H](CC(=O)N1CCCCC1)C(C)(C)C)C(=O)NS(=O)(=O)C1CC1` [Compound 113, (2S,4R)-1-((S)-2-tert-butyl-4-oxo-4-(piperidin-1-yl)butanoyl)-N-((S)-1-(cyclopropanesulfon-amido)-1-oxopentan-2-yl)-4-(7-methoxy-2-phenylquinolin-4-yloxy)pyrrolidine-2-carboxamide], with 1000 to 10000 nM.

Take `COc1ccc2c(O[C@@H]3C[C@@H](C(=O)N[C@@H](C)C(=O)NS(=O)(=O)C4CC4)N(C(=O)[C@@H](CC(=O)N4CCCCC4)C(C)(C)C)C3)cc(-c3ccccc3)nc2c1` [Compound 114, (2S,4R)-1-((S)-2-tert-butyl-4-oxo-4-(piperidin-1-yl)butanoyl)-N-((S)-1-(cyclopropanesulfon-amido)-1-oxopropan-2-yl)-4-(7-methoxy-2-phenylquinolin-4-yloxy)pyrrolidine-2-carboxamide]: the EC50 lay in the range of 1000 to 10000 nM.
